Active and inactive are the calls of the source. The rule behind the calls is not given here. Where a SMILES comes first, the peptide text is derived from it. [ ]: non-standard residue; d: D form. βAla = NCCC(=O)O
Assays:
Rattus norvegicus = test: Analgesic activity in Wistar rat assessed as increase in tail flick latency at 0.4 uM/kg administered intranasally and measured upto 120 mins by tail-flick test; format: functional, organism-based
[1] = Stability in bovine brain synaptosomes assessed as compound remaining at 0.35 mM incubated for 30 mins by thin layer chromatography analysis; format: ADME, subcellular, Bos taurus; settings: cattle
[2] = Stability in bovine brain synaptosomes assessed as compound remaining at 0.35 mM incubated for 3 hrs by thin layer chromatography analysis; format: ADME, subcellular, Bos taurus; settings: cattle; for remaining at 3 h, 350 µM: brain synaptosomes, read-out: Stability
[3] = Acute toxicity in Wistar rat assessed as heart rate at 2 uM/kg administered intranasally and measured after 20 mins; settings: in vivo, inhaled_or_intranasal
[4] = Acute toxicity in Wistar rat assessed as animal activity at 2 uM/kg administered intranasally and measured after 20 mins; settings: in vivo, inhaled_or_intranasal
[5] = Acute toxicity in Wistar rat assessed as pathological abnormalities in organs at 2 uM/kg administered intranasally and measured after 20 mins; settings: in vivo, inhaled_or_intranasal
[6] = Acute toxicity in Wistar rat assessed as sleep at 2 uM/kg administered intranasally and measured after 20 mins; settings: in vivo, inhaled_or_intranasal
[7] = Acute toxicity in Wistar rat assessed as irritability at 2 uM/kg administered intranasally and measured after 20 mins; settings: in vivo, inhaled_or_intranasal
[8] = Acute toxicity in Wistar rat assessed as arterial pressure at 2 uM/kg administered intranasally and measured after 20 mins; settings: in vivo, inhaled_or_intranasal
[9] = Acute toxicity in Wistar rat assessed as pathological abnormalities in tissues at 2 uM/kg administered intranasally and measured after 20 mins; settings: in vivo, inhaled_or_intranasal
[10] = Acute toxicity in Wistar rat assessed as animal death at 2 uM/kg administered intranasally and measured after 20 mins; settings: in vivo, inhaled_or_intranasal
[11] = Acute toxicity in Wistar rat assessed as nausea at 2 uM/kg administered intranasally and measured after 20 mins; settings: in vivo, inhaled_or_intranasal
[12] = Acute toxicity in Wistar rat assessed as appetite at 2 uM/kg administered intranasally and measured after 20 mins; settings: in vivo, inhaled_or_intranasal
[13] = Toxicity in Wistar rat assessed as effect on memory by measuring average distance that has been travelled to previously placed platform at 0.4 uM/kg administered intranasally by Morris water maze test; settings: in vivo, inhaled_or_intranasal

SMILES: CSCC[C@H](NC(=O)[C@H](Cc1ccccc1)NC(=O)CNC(=O)CNC(=O)[C@@H](N)Cc1ccc(O)cc1)C(=O)O
- Activity (Rattus norvegicus): Active
- Stability ([1]; 0.5 h, 350 µM): Unstable

SMILES: C[C@H](N)C(=O)N[C@@H](CCCCN)C(=O)N[C@@H](Cc1ccccc1)C(=O)O (H-Ala-Lys-Phe-OH)
- remaining at 0.5 h, 350 µM ([1]; brain synaptosomes, read-out: Stability): 0%

SMILES: C[C@H](NC(=O)CCN)C(=O)N[C@@H](CCCCN)C(=O)N[C@@H](Cc1ccccc1)C(=O)NCCC(=O)O (H-[βAla]AKF[βAla]-OH)
- Stability ([2]; 3 h, 350 µM): Stable

SMILES: NCCC(=O)N[C@@H](Cc1ccc(O)cc1)C(=O)NCC(=O)N[C@@H](Cc1ccccc1)C(N)=O (H-[βAla]YGF-NH2)
- Activity (Rattus norvegicus): inactive
- remaining at 3 h, 350 µM [2]: 75%

SMILES: NCCC(=O)N[C@@H](Cc1ccc(O)cc1)C(=O)NCC(=O)NCC(=O)N[C@@H](Cc1ccccc1)C(N)=O (H-[βAla]YGGF-NH2)
- Activity [3]: Non-Toxic
- Activity [4]: Non-Toxic
- Activity (Rattus norvegicus): Active
- Activity [5]: Non-Toxic
- Activity [6]: Non-Toxic
- Activity [7]: Non-Toxic
- Activity [8]: Non-Toxic
- Activity [9]: Non-Toxic
- Activity [10]: Non-Toxic
- remaining at 3 h, 350 µM [2]: 75%
- Activity [11]: Non-Toxic
- Activity [12]: Non-Toxic
- Activity [13]: Non-Toxic

SMILES: CSCC[C@H](NC(=O)[C@H](Cc1ccccc1)NC(=O)CNC(=O)CNC(=O)[C@H](Cc1ccc(O)cc1)NC(=O)CCN)C(=O)NCCC(=O)O (H-[βAla]YGGFM[βAla]-OH)
- Activity (Rattus norvegicus): Active
- remaining at 3 h, 350 µM [2]: 55%

Reference: ChEMBL document CHEMBL4609979, “Design of enkephalin modifications protected from brain extracellular peptidases providing long-term analgesia” (Bioorg Med Chem, 2020)
